# From patent publication US20240215873A1, “Aptamer Sensors with Temperature Correction” (University of Cincinnati, priority 2021, published 2024)
# Settings: room temperature; saturated concentration of target analyte; 20 mM tris buffer
# Description: The sensors were all interrogated in 20 mM tris buffer (20 mM trizma base, 100 mM NaCl and 5 mM MgCl2). FIG. 5 illustrates the equilibration of a sensor response with or without the presence of analyte target such as ATP, Tobramycin, or Cocaine.
# The aptamers were equilibrated, interrogated, and regenerated in tris buffer at 1° C., 22° C. and 37° C. […] The performance of each E-AB sensor was characterized to determine their expected response in room temperature (RT).
# To fabricate the E-AB sensors, the 2 mm diameter gold disk macro electrodes (CH Instruments, Austin, TX) were hand polished for 2 min in a 1 μm diamond slurry (Buehler, Lake Bluff, IL) followed by polishing for 2 min in 0.05 μm alumina oxide slurry (Buehler, Lake Bluff, IL). All electrodes were rinsed with ultrapure water (Milli-Q Ultrapure Water Purification, Millipore, Billerica, MA, U.S.A.). To remove particulates, the electrodes were sonicated in a low power sonicator for 5 min. Next, the electrodes were electrochemically cleaned in various concentrations of sodium hydroxide and sulfuric acid solutions. Sensor fabrication consists of numerous steps of incubation. First, 2 uL of 100 mM TCEP was added to 1 μL of aptamer and left to incubate for 1 h to perform a disulfide bond reaction. […]
substance,measurement,value
cocaine,percent signal change (increase in current),56%
